# Data taken from patent US11793779B2, “Hica for use in prophylaxis and/or treatment of a disease or condition involving degradation of cartilage and/or disruption of cartilage homeostasis and/or integrity” (Salarusta Oy, priority 2020, dated 2023).
# Legend:
# S-Hyaluronan = assay: Serum hyaluronan (HA-ELISA) in 4-week double-blind study; assay type: in vivo, human
# Method: In order to assess the effects of HICA on type II collagen and hyaluronic acid in healthy adults in vivo a study was conducted, where fifteen healthy male athletes (age 21.3±2.8 yr) volunteered for the 4-week study with double-blind design (Table 1). They were randomized to two parallel groups. Subjects in Group 1 (n=8, age 22.8±4.6 yr, height 179±6 cm, weight 76.2±6.9 kg, fat % 14.1±3.7%) received 583.2 mg of sodium salt of HICA (corresponding 500 mg of HICA) thrice a day for 4 weeks, and those in Group 2 (n=7, age 21.3±3.0 yr, height 178±5 cm, weight 73.5±5.0 kg, fat % 11.1±3.0%) received placebo (650 mg of maltodextrin) thrice a day for the same period. The subjects and the controls received repacked substance of equal volume (1.5 ml) which they were advised to mix with liquid. The subjects and the controls kept physical training constant during the study period, and they kept training daily. Serum specimens were obtained at baseline and in the end of the treatment. Specimens were aliquoted and immediately frozen; serum was collected and frozen at −70° C.
# Serum HA was measured by Hyaluronan Enzyme-Linked Immunosorbent Assay Kit, HA-ELISA (Echelon Biosciences Inc., Salt Lake City, USA). Intra- and interassay coefficients of variation of the serum HA assay were 3.2% and 4.42% respectively. The assay range was 15-1,000 ng/ml, the intraassay CV was <4%, the interassay CV was <6%. […]
# MMP-13 = MMP-13 (Homo sapiens, UniProt P45452); assay: MMP-13 catalytic activity assay (modified pro-urokinase UKcol, chromogenic substrate S-2444, A405); assay type: biochemical; conditions: HICA 25 μg/ml, FIG. 2
# Method: This example was carried out to test the inhibition of the catalytic activity of MMP-13. MMP-13 activity was measured as described previously (Hanemaaijer, Visser et al. 1998). In brief, MMP-13 was captured from biological fluids using MMP-13-specific monoclonal antibody-coated 96-well plates. The wells were washed three times with PBS-T (phosphate buffered saline solution containing 0.05% [v/v] Tween-20) and incubated with […] assay buffer (50 mM Tris-HCl, pH 7.6. 150 mM NaCl, 5 mM CaCl2, 1 μM ZnCl2 and 0.01% [v/v] Brij-35), to which 15 μl (50 μg/ml) modified pro-urokinase (UKcol) and 10 pl (6 mM stock) chromogenic substrate S-2444 was added. Color development was recorded by measurement of A405 using a Titertek Multiskan 8-channel photometer (Verheijen, Nieuwenbroek et al. 1997). For measurement of total activity (already active plus latent MMP-13) in biological fluid, the immobilized MMP-13 was incubated with assay buffer containing 0.5 mM APMA for 2 hr, after which UKcol and S-2444 were added and activity was recorded. (Hanemaaijer, Sier et al. 1999)
# The protocol for this experiment: MMP-13 was activated with […] of APMA (p-aminophenylmercuric acetate, obtained from Sigma-Aldrich #A9563), after which MMP-13 was diluted and mixed with indicated inhibitors. Solution was let to incubate 30 minutes at 37° C. […]
# [1] = target: T1, human Matrix metalloproteinase 13 (MMP-13) (Homo sapiens, UniProt P45452); assay: MMP-13 mediated break down of aggrecan (SDS-PAGE, silver stain); assay type: biochemical; conditions: 10% racemic HICA, APMA-activated MMP-13, incubation 2 d, FIG. 1 line 11
# T1 construct: purchased BioTeZ, Berlin-Buch, Berlin, Germany 30100802
# Method: As positive inhibitor controls Ilomastat (Ilo, CC1010, Millipore) and chlorhexidine (CHX, Corsodyl®, [2 mg/ml] (GlaxoSmithKline, Brøndby, Denmark) were used and 50 mM Tris-HCl-buffer (TNC): pH 7.5; 0.2 M NaCl; 1.0 mM CaCl2) was used as neutral assay buffer.
# MMP-13 was preincubated 1 hour at 37° C. with p-aminophenylmercuric acetate (APMA, A9563, Sigma-Aldrich) to optimally activate (pro)MMP-13. As substrate, Aggrecan was added and then ADAMTS-5 or activated MMP-13 as catalytic/proteolytic enzyme and TNC, as neutral control, and 10% HICA, CHX or Ilo as protease/MMP-inhibitors let incubated together from 1 hour (h) to 2 days (d). The enzyme reactions terminated by boiling with modified Laemmli buffer. The samples were analysed by 8% SDS-PAGE and after electrophoresis the defragmentation of Aggrecan was visualised using Silver Stain Pierce®.
# Sample with concentrations in lines: • 1. 0.25 μl molecular weight standards. Bio-Rad • 2. 4.2 μl Aggrecan (0.5 μg/μl) • 3. 4 μl ADAMTS-5 (0.1 μg/μl) • 4. 4.2 μl Aggrecan+4 μl ADAMTS-5+6 μl TNC-buffer. inc: 2d • 5. 4.2 μl Aggrecan+4 μl ADAMTS-5+6 μl 10% HICA. inc: 2d • 6. 4.2 μl Aggrecan+4 μl ADAMTS-5+6 μl CHX (2 mg/ml). inc: 2d • 7. 1 μl MMP-13 (0.2 μg/μl)+3 μl 2 mM APMA+6 μl TNC • 8. 4.2 μl Aggrecan+1 μl MMP-13 (0.2 μg/μl)+3 μl 2 mM APMA+6 μl TNC. inc: 1h • 9. 4.2 μl Aggrecan+1 μl MMP-13 (0.2 μg/μl)+3 μl 2 mM APMA+6 μl TNC. inc: 2d • 10. […]
structure (smiles),measurement,setting,value
"CC(C)CC(O)C(=O)O (racemic) [HICA, 2-hydroxy-4-methylpentanoic acid]",S-Hyaluronan after HICA,"S-Hyaluronan; Mean ± SEM, n=8 healthy male athletes, sodium salt of HICA corresponding 500 mg HICA thrice a day for 4 weeks, before 202 ± 56, p = 0.066 vs placebo",143 ± 19 ng/mL
same,decrease in serum HA concentration,"S-Hyaluronan; during 4-week administration of HICA, placebo 10%, p=0.066 between the groups",29%
same,decreased activity of MMP-13,MMP-13; MMP-13 concentration 1.5 ng/ml,72%
same,decreased activity of MMP-13,MMP-13; MMP-13 concentration 24 ng/ml,73%
same,inhibition of break down of Aggrecan by MMP-13,[1],inhibited the break down of Aggrecan
